Test system: Agrobacterium vitis
Experiment: Inhibition of growth of Agrobacterium vitis strains on PDA plates (diameters of inhibitory zones)
Type: cell-based
Details: 3% v/v; 6 strains; 28° C., 2-5 days
Method: The biological efficacy of the test agents was determined in terms of inhibition of the growth. To this aim 6 strains of Agrobacterium vitis from different growing areas worldwide, were grown in vitro. The strains of A. vitis, were inoculated on Petri dishes containing PDA (Potato Dextrose Agar), in the ratio of approximately 10 to 8 cells. After plating the bacteria, 5 holes (6 mm) were drilled in the substrate (one at the center of the plate and 4 equally spaced around the central hole). Each plate was filled with 20 microliters of test substance at the concentrations indicated; for each substance and concentration, 3 replies were set up. The central hole was filled with 20 microliters of sterile water, which represented the untreated control. The plates were incubated at 28° C., for 2-5 days.
After the expiration of the incubation period, for each tested strain and for each substance and concentration, the diameters of the inhibitory zones were considered (average of two orthogonal diameters of each inhibitory area). The collected data were subjected to analysis of variance ANOVA and comparison of averages with SNK test.

`OCl` [Sodium Hypochlorite] was tested, and the “inhibition of the growth (inhibitory zones)” value was “completely inhibited”.
